{"source": "patent US20150104392A1", "about": "“COMPOSITIONS, BIOMARKERS AND THEIR USE IN THE TREATMENT OF CANCER” (Aptose Biosciences Inc., priority 2013, published 2015)", "key": {"[1]": {"assay": "GLP blood compatibility studies"}, "hERG": {"molecular_target": "hERG (Homo sapiens, UniProt Q12809)", "sequence (Q12809 whole entry)": "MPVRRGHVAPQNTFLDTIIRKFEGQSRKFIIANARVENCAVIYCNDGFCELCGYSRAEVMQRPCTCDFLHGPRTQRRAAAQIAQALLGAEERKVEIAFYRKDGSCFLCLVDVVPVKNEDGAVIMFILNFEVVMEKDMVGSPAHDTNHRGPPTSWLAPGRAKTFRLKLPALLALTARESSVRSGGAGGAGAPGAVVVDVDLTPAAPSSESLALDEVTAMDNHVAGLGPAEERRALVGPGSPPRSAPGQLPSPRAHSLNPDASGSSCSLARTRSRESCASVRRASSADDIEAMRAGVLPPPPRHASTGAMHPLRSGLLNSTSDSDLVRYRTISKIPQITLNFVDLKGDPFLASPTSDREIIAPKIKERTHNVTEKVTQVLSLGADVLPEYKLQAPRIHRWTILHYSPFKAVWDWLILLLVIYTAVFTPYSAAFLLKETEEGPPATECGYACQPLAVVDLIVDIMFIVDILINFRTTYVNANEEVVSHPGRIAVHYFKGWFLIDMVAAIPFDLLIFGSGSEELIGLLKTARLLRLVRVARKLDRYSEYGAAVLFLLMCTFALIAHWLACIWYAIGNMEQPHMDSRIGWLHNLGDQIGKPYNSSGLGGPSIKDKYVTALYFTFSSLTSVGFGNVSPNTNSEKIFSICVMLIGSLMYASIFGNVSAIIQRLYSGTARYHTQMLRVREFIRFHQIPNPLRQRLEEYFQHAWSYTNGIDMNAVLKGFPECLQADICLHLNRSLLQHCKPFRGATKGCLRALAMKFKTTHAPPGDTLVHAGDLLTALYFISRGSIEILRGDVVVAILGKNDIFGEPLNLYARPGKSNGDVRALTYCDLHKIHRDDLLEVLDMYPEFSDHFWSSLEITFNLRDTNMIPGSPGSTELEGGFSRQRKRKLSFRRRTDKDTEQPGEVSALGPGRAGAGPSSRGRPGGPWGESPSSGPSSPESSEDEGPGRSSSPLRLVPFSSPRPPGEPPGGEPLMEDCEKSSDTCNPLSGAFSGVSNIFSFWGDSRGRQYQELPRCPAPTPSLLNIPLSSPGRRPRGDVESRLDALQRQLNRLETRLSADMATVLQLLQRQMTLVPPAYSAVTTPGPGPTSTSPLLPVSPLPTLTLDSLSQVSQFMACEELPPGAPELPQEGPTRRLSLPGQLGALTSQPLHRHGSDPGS", "assay": "hERG tail current density"}, "H226 xenograft": {"tested_on": "H226 xenograft", "assay": "H226 xenograft model, dose and schedule", "assay_type": "in vivo, mice", "conditions": "groups 2, 3 and 4: 10 mg/kg-iv, schedules 3T-12B-3T, 2T-5B-2T, 3T-5B-3T, 2 cycles"}, "THP1 cells": {"tested_on": "THP1 cells", "assay": "BAX/BCL2 expression, quantitative RT-PCR", "assay_type": "cell-based, human", "conditions": "0.5 μM, 48 hours", "procedure": "(§1) THP1 cells were treated with DMSO (vehicle control) or 0.5 μM LOR-253 for 48 hours. Total RNA was extracted using the TRIzol Plus RNA Purification kit (Ambion, Life Technologies), according to the manufacturer's instructions. First strand cDNA was synthesized from 1-2 ug total RNA using random hexamer primers (Invitrogen) and the SuperScript II Reverse Transcriptase kit (Invitrogen). Quantitative RT-PCR was performed in the ABI Prism 7000 Sequence Detection System using cDNAs and human TaqMan Gene Expression Assay primer/probe sets for BCL2-associated X protein (BAX), B-cell CLL/Lymphoma 2 (BCL2) and the ABI TaqMan Universal PCR master mix protocol. Gene expression was normalized with β-actin gene expression in the same sample, and fold changes in BAX or BCL2 were expressed relative to the corresponding expression level in the DMSO treated samples using the comparative CT method."}, "cancer cell lines": {"tested_on": "cancer cell lines", "assay": "XTT antiproliferative assay, panel of cancer cell lines (FIG. 3)", "assay_type": "cell-based", "procedure": "FIG. 3 is a graphical representation of the effect of LOR-253 on proliferation of a number of cancer cell lines in vitro. Cells of various cancer cell lines were incubated with LOR-253 as described in the Examples, and the […] concentrations of various cell lines for 50% of maximal inhibition of cell proliferation (GI50) by LOR-253 were determined and shown in the figure.\nAntiproliferative activity of LOR-253 was determined by XTT assay as follows. Adherent cells (2×10^3/well) in 100 μL of growth medium were seeded in 96-well cell culture plates and incubated overnight at 37° C. The medium was removed and replaced with a total volume of 100 μL growth medium containing LOR-253 (or 0.1% DMSO vehicle control), as described in the respective experiments. […] After incubation of the cells at 37° C. for 5 days, cell viability was quantitated with the use of sodium 3′-[1-(phenylamino-carbonyl)-3,4-tetrazolium}-bis(4-methoxy-6-nitro)benzene sulfonic acid hydrate (XTT) colorimetric assay (Roche). […] The plates were further incubated at 37° C. for 4 h, and the absorbance of each well was measured at 490 nm with a multiwell spectrophotometer (Bio-Tek Instruments Inc.). The data were adjusted relative to the blank and expressed as a percentage of cell growth compared with the vehicle control. […]"}, "THP-1 cells": {"tested_on": "THP-1 cells", "assay": "FITC-Annexin V / propidium iodide flow cytometry (apoptosis)", "assay_type": "cell-based", "conditions": "16 hours", "procedure": "THP-1 cells were treated with DMSO, 0.5 or 1 uM of LOR-253 for 16 hours. Cells were washed twice with cold PBS and resuspended Annexin V binding buffer. 1×10^5 cells in 100 μL were stained with FITC-Annexin V and propidium iodide, and incubated for 15 minutes at room temperature. After staining, 400 ul of binding buffer was added and the cells were kept on ice until analyzed on a BD FACSCanto flow cytometer."}, "[2]": {"assay": "Repeat-dose toxicity study", "assay_type": "in vivo", "conditions": "dogs, highest dose tested"}, "KLF4 protein": {"tested_on": "KLF4 protein", "assay": "Pharmacodynamic response, KLF4 protein level in tumors", "assay_type": "in vivo", "conditions": "mice; 1, 5 and 15 mg/kg for 5 consecutive days; 16 hours after last dose", "procedure": "To study the pharmacodynamic (PD) responses, mice were treated for 5 consecutive days with 1, 5, and 15 mg/kg LOR-253. Tumors were measured 16 hours after the last dose, and the KLF-4 protein level was measured."}, "THP1 [3]": {"tested_on": "THP1", "assay": "Cell cycle analysis, propidium iodide flow cytometry", "assay_type": "cell-based", "conditions": "0.5 μM, 16 hours", "procedure": "(§2) THP1 and HL-60 AML cell lines were treated with DMSO (vehicle control) or 0.5 μM LOR-253 for 16 hours. Cells were washed once in PBS+1% FCS and fixed using ice cold 70% ethanol overnight. Fixed cells were washed twice, resuspended in PI/RNaseA solution, containing 20 μg/mL propidium iodide and 250 μg/mL RNaseA, and stained for 30 minutes at 37° C. Stained cells were analyzed using a BD FACSCalibur flow cytometer."}, "HL-60 [4]": {"tested_on": "HL-60", "assay": "Cell cycle analysis, propidium iodide flow cytometry", "assay_type": "cell-based", "conditions": "0.5 μM, 16 hours", "procedure": "as §2"}, "THP1 [5]": {"tested_on": "THP1", "assay": "KLF4/p21 induction, quantitative RT-PCR", "assay_type": "cell-based, human", "conditions": "0.5 μM, 16 hours", "procedure": "as §1, with “To determine if KLF4 and/or p21 expressions are induced by LOR-253, AML” for “THP1”, “cells (THP1, HL-60)” for “cells”, “16” for “48”, “Krüppel-like factor 4 (KLF4), cyclin-dependent kinase inhibitor 1A (p21)” for “BCL2-associated X protein (BAX), B-cell CLL/Lymphoma 2 (BCL2)”, “KLF4” for “BAX”, “p21” for “BCL2”"}, "HL-60 [6]": {"tested_on": "HL-60", "assay": "KLF4/p21 induction, quantitative RT-PCR", "assay_type": "cell-based, human", "conditions": "0.5 μM, 16 hours", "procedure": "as §1, with “To determine if KLF4 and/or p21 expressions are induced by LOR-253, AML” for “THP1”, “cells (THP1, HL-60)” for “cells”, “16” for “48”, “Krüppel-like factor 4 (KLF4), cyclin-dependent kinase inhibitor 1A (p21)” for “BCL2-associated X protein (BAX), B-cell CLL/Lymphoma 2 (BCL2)”, “KLF4” for “BAX”, “p21” for “BCL2”"}, "CYP450 enzymes": {"tested_on": "CYP450 enzymes", "assay": "CYP450 enzyme inhibition", "assay_type": "in vitro ADME"}}, "data": [{"smiles": "Cc1[nH]c2ccc(F)cc2c1-c1nc2c3cccnc3c3ncccc3c2[nH]1", "note": "[LOR-253]", "values": [{"measurement": "blood compatibility of IV formulation", "setting": "[1]", "result": "confirmed the suitability of IV formulation"}, {"measurement": "inhibition of hERG tail current density", "setting": "hERG", "result": "no significant inhibition"}, {"measurement": "tumor size, H226 xenograft", "setting": "H226 xenograft", "result": "effectively treated"}, {"measurement": "BAX expression (fold change vs DMSO)", "setting": "THP1 cells", "result": "Elevation of BAX"}, {"measurement": "BCL2 expression (fold change vs DMSO)", "setting": "THP1 cells", "result": "repression of BCL2"}, {"measurement": "sensitivity of cell lines to LOR-253", "setting": "cancer cell lines; cell lines of lung, bladder, colon, prostate cancer, melanoma and breast cancer", "result": "less sensitive"}, {"measurement": "sensitivity of cell lines to LOR-253", "setting": "cancer cell lines; leukemia/lymphoma incl. AML cell lines (HL-60, MV 411, THP-1, HEL92.1.7, CCRF-CEM, MOLT-4, Jurkat, K-562, Ramos, Raji)", "result": "most sensitive"}, {"measurement": "Annexin V staining", "setting": "THP-1 cells; 0.5 or 1 uM", "result": "elevated Annexin V staining"}, {"measurement": "early apoptotic population (Q3: Annexin V+/PI−)", "setting": "THP-1 cells; increasing concentration (0.5 to 1 uM)", "result": "increase in the early apoptotic population"}, {"measurement": "cardiovascular effects", "setting": "[2]", "result": "no treatment-related cardiovascular effects"}, {"measurement": "average KLF4 protein levels in tumors", "setting": "KLF4 protein", "result": "increased in a dose-dependent manner"}, {"measurement": "cell cycle effect", "setting": "THP1 [3]", "result": "G1/S cell cycle arrest"}, {"measurement": "cell cycle effect", "setting": "HL-60 [4]", "result": "G1/S cell cycle arrest"}, {"measurement": "KLF4 expression (fold change vs DMSO)", "setting": "THP1 [5]", "result": "increased expression"}, {"measurement": "p21 expression (fold change vs DMSO)", "setting": "THP1 [5]", "result": "increased expression"}, {"measurement": "KLF4 expression (fold change vs DMSO)", "setting": "HL-60 [6]", "result": "increased expression"}, {"measurement": "p21 expression (fold change vs DMSO)", "setting": "HL-60 [6]", "result": "increased expression"}, {"measurement": "inhibition of CYP450 enzymes", "setting": "CYP450 enzymes", "result": "no significant inhibition"}]}]}
